Reference: ChEMBL document CHEMBL1201862, “PubChem BioAssay data set” (2004)
Active and inactive are the calls of the source.

Tests used:
[1] = system: Streptococcus sp. 'group A'; assay: Streptococcus pyogenes SK(-)GAS viability under kanamycin – luminescence, BacTiterGlo, confirmation, counter-screen for streptokinase expression inhibitor project, dose response (AID 1900); assay type: functional, organism-based
BJ [2] = assay: BJ-TERT fibroblast viability loss – cell-based, RAS-independent, luminescence, dose response (AID 1933); assay type: functional; conditions: Homo sapiens
Beta-galactosidase = Beta-galactosidase (Escherichia coli, UniProt Q8VNN2); assay: PubChem AID 485352; assay type: functional
Sequence of Beta-galactosidase (Q8VNN2 whole entry): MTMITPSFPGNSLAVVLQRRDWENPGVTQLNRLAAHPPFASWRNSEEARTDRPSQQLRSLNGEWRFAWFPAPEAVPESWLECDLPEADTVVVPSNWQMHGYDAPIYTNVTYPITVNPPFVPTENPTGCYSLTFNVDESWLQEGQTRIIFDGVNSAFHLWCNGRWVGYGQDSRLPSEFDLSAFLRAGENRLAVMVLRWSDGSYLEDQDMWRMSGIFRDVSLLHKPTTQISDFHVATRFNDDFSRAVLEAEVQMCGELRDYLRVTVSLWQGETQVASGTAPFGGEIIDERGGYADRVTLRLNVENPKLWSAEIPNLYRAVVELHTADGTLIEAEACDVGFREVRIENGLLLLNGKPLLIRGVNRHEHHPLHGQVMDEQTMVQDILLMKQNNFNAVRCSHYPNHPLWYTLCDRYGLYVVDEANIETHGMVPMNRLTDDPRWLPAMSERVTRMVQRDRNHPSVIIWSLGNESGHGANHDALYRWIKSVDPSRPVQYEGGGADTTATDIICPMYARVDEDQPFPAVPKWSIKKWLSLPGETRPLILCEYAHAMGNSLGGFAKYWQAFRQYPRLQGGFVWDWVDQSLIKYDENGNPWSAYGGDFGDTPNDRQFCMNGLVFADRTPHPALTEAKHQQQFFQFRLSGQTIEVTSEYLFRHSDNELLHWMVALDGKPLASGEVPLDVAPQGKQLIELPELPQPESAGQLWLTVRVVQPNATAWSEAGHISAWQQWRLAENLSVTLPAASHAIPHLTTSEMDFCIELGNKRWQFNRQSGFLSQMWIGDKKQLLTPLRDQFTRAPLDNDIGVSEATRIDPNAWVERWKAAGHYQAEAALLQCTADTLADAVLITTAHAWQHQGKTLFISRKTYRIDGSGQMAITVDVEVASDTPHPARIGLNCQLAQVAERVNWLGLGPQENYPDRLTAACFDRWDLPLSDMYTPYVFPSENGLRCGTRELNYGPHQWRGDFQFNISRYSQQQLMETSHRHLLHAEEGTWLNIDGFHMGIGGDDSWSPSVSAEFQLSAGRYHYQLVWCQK

Streptokinase A = target: T1, Streptokinase A (Streptococcus pyogenes serotype M1, UniProt P10520); assay: viability-normalized secreted streptokinase activity reduction – plasminogen activation absorbance, OD405, dose response (AID 1914); assay type: functional, Streptococcus pyogenes M1 GAS;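 note: secreted streptokinase activity via plasminogen activation per viability signal from cell pellet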
T1 sequence (P10520 whole entry): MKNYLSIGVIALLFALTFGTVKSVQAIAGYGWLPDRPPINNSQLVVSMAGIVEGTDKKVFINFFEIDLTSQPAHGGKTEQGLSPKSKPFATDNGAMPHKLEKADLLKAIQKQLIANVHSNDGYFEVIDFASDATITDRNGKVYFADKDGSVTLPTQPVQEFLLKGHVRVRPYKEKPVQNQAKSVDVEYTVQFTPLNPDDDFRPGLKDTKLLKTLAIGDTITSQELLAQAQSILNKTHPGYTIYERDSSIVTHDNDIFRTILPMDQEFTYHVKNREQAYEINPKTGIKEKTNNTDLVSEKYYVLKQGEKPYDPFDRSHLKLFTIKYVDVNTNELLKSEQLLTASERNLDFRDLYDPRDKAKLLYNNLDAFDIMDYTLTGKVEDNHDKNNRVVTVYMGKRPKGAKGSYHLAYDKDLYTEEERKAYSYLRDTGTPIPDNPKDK

BJ [3] = assay: cells; assay type: functional, cell-based; conditions: Homo sapiens
[4] = target: T2, Type-1 angiotensin II receptor (Homo sapiens, UniProt P30556); assay: antagonism of angiotensin II type 1 receptor – cell-based, uHTS hits, selectivity assay for APJ receptor antagonist project, dose response (AID 463214); assay type: functional;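 note: antagonist potency against angiotensin II stimulated AT1 response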
T2 sequence (P30556 whole entry): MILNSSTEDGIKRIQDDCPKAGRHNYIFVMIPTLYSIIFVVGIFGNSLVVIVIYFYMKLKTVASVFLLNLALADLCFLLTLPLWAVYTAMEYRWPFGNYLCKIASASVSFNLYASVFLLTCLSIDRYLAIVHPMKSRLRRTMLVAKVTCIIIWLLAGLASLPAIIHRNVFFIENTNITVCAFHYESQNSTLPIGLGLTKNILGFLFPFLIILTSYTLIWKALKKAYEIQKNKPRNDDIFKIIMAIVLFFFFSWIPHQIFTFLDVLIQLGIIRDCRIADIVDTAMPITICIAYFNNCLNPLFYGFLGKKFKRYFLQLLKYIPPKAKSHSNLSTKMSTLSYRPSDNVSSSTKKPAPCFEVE

BJ [5] = assay: BJ-TERT-LT-ST fibroblast viability loss – cell-based, RAS-independent, luminescence, dose response (AID 1935); assay type: functional; conditions: Homo sapiens;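 note: BJ fibroblasts immortalized with TERT plus LT and ST oncogenes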
[6] = DRD fibroblast viability loss – cell-based, non-viral oncogenic, luminescence, dose response (AID 1934); assay type: functional; conditions: Homo sapiens
Streptococcus = assay: GAS UMAA2166 growth inhibition – luminescence, BacTiterGlo, counter-screen for streptokinase expression inhibitor project, dose response (AID 1915); assay type: functional, organism-based;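 note: potency for reduction of bacterial viability or growth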
[7] = HEK-293T viability loss after treatment – luminescence, T-cell screen hits, cytotoxicity control for TCR NF-kB inhibitor project, dose response (AID 489026); assay type: functional, cell-based;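 note: cells exposed to compound about 14 hours before the viability readout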
BJ [8] = assay: growth inhibition of engineered Ras-driven BJ cells – cell-based, alamar blue fluorescence, cherrypicked samples, dose response (AID 2631); assay type: functional; conditions: Homo sapiens;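 note: confirmatory dose-response assay in RAS-dependent BJ fibroblasts engineered with TERT, LT and ST, with cytotoxicity read by fluorescence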
[9] = viability loss in HepG2 hepatoma cells – cell-based, ATP luminescence, cherry-pick, activator set 2, cytotoxicity control, dose response (AID 1053143); assay type: functional
[10] = target: T3, Sentrin-specific protease 8 (Homo sapiens, UniProt Q96LD8); assay: inhibition of human SENP8 cleavage activity – biochemical, luminescence, SAR follow-up (AID 504501); assay type: functional
T3 sequence (Q96LD8 whole entry): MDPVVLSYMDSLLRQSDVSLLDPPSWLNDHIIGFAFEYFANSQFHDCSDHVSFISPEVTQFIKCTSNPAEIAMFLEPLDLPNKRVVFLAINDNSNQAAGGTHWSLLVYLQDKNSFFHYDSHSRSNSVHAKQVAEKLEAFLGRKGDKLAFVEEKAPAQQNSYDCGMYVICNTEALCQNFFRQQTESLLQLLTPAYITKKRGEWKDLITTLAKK

Caspase-3 [11] = target: T4, Caspase-3 (Homo sapiens, UniProt P42574); assay: inhibition of recombinant caspase-3 activity – biochemical, luminescence, set 2, selectivity assay for SENP protease inhibitor project, SAR follow-up (AID 588599); assay type: functional
T4 sequence (P42574 whole entry): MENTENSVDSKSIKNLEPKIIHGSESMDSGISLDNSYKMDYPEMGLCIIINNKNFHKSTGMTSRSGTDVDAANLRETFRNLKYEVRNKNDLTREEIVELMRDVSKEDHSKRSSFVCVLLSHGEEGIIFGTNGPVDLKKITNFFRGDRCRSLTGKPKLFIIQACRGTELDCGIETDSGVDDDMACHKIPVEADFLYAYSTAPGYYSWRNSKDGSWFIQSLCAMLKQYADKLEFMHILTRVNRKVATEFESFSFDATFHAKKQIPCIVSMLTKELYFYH

[12] = target: T3, Sentrin-specific protease 8; assay: inhibition of sentrin protease 8 – biochemical, luminescence, set 2, SAR follow-up (AID 588601); assay type: functional
Caspase-3 [13] = target: T4, Caspase-3; assay: SAR Analysis of small molecule inhibitors of Sentrin-specific proteases (SENPs) using a Caspase-3 Selectivity assay. [Related pubchem assays (depositor defined):AID2540, AID2599, AID434973, AID489001]; assay type: functional
[14] = target: T5, Sentrin-specific protease 6 (Homo sapiens, UniProt Q9GZR1); assay: SAR Analysis of small molecule inhibitors of Sentrin-specific protease 6 (SENP6) using a Luminescent assay. [Related pubchem assays (depositor defined):AID2582, AID2599]; assay type: functional
T5 sequence (Q9GZR1 whole entry): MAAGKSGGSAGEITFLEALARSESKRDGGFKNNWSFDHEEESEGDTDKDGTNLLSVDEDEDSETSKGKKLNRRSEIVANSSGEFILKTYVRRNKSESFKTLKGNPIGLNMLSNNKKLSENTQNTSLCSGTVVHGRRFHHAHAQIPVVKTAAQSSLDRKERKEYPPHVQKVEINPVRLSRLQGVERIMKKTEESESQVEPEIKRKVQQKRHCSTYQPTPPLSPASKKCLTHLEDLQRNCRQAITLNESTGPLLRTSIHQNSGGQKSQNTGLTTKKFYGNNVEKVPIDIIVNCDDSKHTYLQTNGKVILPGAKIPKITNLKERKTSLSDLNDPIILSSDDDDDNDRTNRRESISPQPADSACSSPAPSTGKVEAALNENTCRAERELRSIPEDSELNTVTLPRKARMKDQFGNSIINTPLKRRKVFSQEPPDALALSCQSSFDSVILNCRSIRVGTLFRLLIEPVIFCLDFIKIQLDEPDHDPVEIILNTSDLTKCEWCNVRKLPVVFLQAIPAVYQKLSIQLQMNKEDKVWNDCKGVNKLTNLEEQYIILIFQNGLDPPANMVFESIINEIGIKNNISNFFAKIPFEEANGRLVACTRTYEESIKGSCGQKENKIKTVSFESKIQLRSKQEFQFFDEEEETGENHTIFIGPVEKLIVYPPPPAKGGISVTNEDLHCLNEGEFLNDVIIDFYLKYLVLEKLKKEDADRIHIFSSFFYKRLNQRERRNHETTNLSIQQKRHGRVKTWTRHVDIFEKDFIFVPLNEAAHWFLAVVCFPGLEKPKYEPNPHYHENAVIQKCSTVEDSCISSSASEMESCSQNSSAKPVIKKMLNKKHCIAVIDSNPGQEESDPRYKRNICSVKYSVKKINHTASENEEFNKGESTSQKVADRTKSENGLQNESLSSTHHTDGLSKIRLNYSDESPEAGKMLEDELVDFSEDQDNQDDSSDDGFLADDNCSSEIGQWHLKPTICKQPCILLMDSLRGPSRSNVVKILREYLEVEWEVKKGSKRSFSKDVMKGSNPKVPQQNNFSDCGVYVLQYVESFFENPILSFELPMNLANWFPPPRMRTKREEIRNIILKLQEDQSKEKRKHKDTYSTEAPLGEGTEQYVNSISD

[15] = target: T5, Sentrin-specific protease 6; assay: inhibition of human SENP6 catalytic domain – biochemical, luminescence, set 2, SAR follow-up (AID 588598); assay type: functional
[16] = target: T6, Sentrin-specific protease 7 (Homo sapiens, UniProt Q9BQF6); assay: inhibition of human SENP7 cleavage activity – biochemical, luminescence, SAR follow-up (AID 504497); assay type: functional
T6 sequence (Q9BQF6 whole entry): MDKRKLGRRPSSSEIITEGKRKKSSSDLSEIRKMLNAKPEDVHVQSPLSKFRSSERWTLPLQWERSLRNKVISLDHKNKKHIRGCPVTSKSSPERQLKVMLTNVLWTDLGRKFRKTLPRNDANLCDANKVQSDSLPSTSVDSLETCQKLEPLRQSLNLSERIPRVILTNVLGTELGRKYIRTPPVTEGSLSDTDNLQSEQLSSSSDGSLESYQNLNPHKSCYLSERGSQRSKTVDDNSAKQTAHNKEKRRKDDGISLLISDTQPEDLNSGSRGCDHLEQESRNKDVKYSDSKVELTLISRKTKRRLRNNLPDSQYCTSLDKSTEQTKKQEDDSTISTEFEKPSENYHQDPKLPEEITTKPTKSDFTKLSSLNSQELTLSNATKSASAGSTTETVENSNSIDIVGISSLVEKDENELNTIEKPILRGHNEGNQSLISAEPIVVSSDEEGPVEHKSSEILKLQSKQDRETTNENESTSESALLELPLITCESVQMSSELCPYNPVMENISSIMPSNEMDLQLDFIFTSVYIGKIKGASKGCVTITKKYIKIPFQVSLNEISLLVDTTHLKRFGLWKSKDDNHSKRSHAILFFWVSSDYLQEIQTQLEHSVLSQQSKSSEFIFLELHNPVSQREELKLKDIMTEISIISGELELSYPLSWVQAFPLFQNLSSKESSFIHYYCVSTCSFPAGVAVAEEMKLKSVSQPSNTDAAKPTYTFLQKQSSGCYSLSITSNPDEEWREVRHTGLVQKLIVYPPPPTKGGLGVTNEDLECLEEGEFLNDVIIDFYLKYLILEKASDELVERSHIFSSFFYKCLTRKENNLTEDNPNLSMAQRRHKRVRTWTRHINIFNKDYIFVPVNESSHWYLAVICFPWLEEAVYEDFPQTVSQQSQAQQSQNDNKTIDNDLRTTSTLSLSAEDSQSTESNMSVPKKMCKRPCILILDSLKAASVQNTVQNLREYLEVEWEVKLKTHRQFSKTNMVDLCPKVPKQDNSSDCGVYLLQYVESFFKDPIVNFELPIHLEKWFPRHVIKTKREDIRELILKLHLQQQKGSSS

| SMILES | EC50 [1] | EC50 (BJ [2]) | EC50 (Beta-galactosidase) | EC50 (Streptokinase A) | EC50 (BJ [3]) | IC50 [4] | EC50 (BJ [5]) | EC50 [6] | EC50 (Streptococcus) | IC50 [7] | EC50 (BJ [8]) | AC50 [9] | IC50 [10] | IC50 (Caspase-3 [11]) | IC50 [12] | IC50 (Caspase-3 [13]) | IC50 [14] | IC50 [15] | IC50 [16] |
| --- | --- | --- | --- | --- | --- | --- | --- | --- | --- | --- | --- | --- | --- | --- | --- | --- | --- | --- | --- |
| COc1cc(/C=C/c2ccc3cccc(O)c3n2)cc(OC)c1OC | 2.28 µM (active) | 1.26 µM (active) | > 40 µM (inactive) | > 150 µM (not active) | 47.8 µM (inconclusive) | 6.2 µM (active) | 1.2 µM (inconclusive) | 1.5 µM (active) | 15.6 µM (active) | > 80 µM (inactive) | 2.96 µM (inconclusive) | 9.5 µM (active) | – | – | – | – | – | – | – |
| COc1ccccc1OCc1nc(-c2ccccc2Cl)no1 | – | – | – | – | – | – | – | – | – | – | – | – | 4.9 µM (active) | 3.23 µM (active) | 2 µM (active) | 2.9 µM (active) | 4.7 µM (active) | 2.08 µM (active) | 2.1 µM (active) |
